The IC50 is the midpoint of a concentration-inhibition curve.

One assay has as its system Leishmania major. In words: Antileishmanial activity against Leishmania major egfp promastigotes at 10 ug/ml. The class given is functional. As to conditions: for inhibition of growth at 10 µg/mL: read-out: GI.
A further assay has as its system HeLa. In words: Cytotoxicity against human HeLa cells lines by MTT assay. The class given is cell-based. (In general: Formazan colour is commonly taken as a measure of viable cells.)

≈ marks a conversion by molar mass, not a printed value. Calls of active or inactive are those of the source. The rule behind the calls is not given here.

`C=CCCCCCCCC(=O)N(C)[C@@H](Cc1ccccc1)C(=O)N[C@H]1CCCNC1=O` [CILIATAMIDES C]: in the assay on Leishmania major, the result was inactive. Further, the IC50 with HeLa is 50 µg/mL (≈ 117 µM).
Take `C=CCCCCCCCC(=O)N(C)[C@@H](Cc1ccccc1)C(=O)N[C@H]1CCCCNC1=O` [CILIATAMIDES A]: the inhibition of growth at 10 µg/mL in the assay with Leishmania major was 50%. In addition, the IC50 with HeLa was 50 µg/mL (≈ 113 µM).
Regarding `CCCCCCCC(=O)N(C)[C@@H](Cc1ccccc1)C(=O)N[C@H]1CCCCNC1=O` [CILIATAMIDES B], the inhibition of growth at 10 µg/mL in the assay on Leishmania major is 45.5%. The same compound yielded an IC50 with HeLa of 4.5 µg/mL (≈ 10.8 µM).

For the origin of these results see ChEMBL document CHEMBL1144807, “Ciliatamides A-C, bioactive lipopeptides from the deep-sea sponge Aaptos ciliata” (J Nat Prod, 2008).
